Among the data in US11535621B2, “Heterobicyclic amides as inhibitors of CD38” (Ribon Therapeutics, Inc., priority 2019, dated 2022) are IC50 values, retold here.

pIC50: −log10 of the molar value.

The term pIC50 denotes the negative decadic logarithm of the IC50, by convention in mol/L. A lower pIC50 goes with a high IC50.

Sequence of Human CD38 (P28907 whole entry): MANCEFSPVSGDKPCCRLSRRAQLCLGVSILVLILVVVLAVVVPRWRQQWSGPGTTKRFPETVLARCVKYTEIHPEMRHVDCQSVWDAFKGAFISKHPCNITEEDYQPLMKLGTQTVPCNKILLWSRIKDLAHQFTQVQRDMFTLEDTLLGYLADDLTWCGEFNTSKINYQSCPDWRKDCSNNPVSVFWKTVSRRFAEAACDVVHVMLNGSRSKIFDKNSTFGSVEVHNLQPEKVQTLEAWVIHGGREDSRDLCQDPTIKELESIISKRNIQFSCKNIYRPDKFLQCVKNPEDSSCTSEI

The experiment has as its target Human CD38 (Homo sapiens (Human), UniProt P28907). Put plainly: CD38 enzyme assay. Type of experiment: biochemical. Conditions: 2 nM CD38, NAD+ substrate, absorbance at 405 nm. In outline: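 IC50 values come from fitting % inhibition against compound concentration with a 4-parameter logistic, or a 3-parameter fit with top/bottom fixed at 100/0 or Hill at 1. Inhibition is scaled between DMSO wells and positive-control wells treated with a quinolinone CD38 inhibitor.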
For the molecule `O=C(N[C@H]1CC[C@H](NCC(F)F)CC1)c1nc(-n2ccnc2)nc2ccsc12` [Example 221, N-((1r,4r)-4-(2,2-difluoroethylamino)cyclohexyl)-2-(1H-imidazol-1-yl)thieno[3,2-d]pyrimidine-4-carboxamide], the pIC50 is 7.00 to 8.00.
In turn, `O=C(N[C@H]1CC[C@H](NCCC(F)(F)F)CC1)c1nc(-n2ccnc2)nc2ccsc12` [Example 222, 2-(1H-imidazol-1-yl)-N-((1r,4r)-4-((3,3,3-trifluoropropyl)amino)cyclohexyl)thieno[3,2-d]pyrimidine-4-carboxamide] gave a pIC50 of 7.00 to 8.00.
Then `CN(C)CCOc1ccc(NC(=O)c2nc(-n3ccnc3)cc3cn[nH]c23)cn1` [Example 223, N-(6-(2-(dimethylamino)ethoxy)pyridin-3-yl)-5-(1H-imidazol-1-yl)-1H-pyrazolo[3,4-c]pyridine-7-carboxamide], with 7.00 to 8.00; and `O=C(Nc1ccc(N2CCNCC2)nc1)c1nc(-n2ccnc2)cc2cn[nH]c12` [Example 224, 5-(1H-imidazol-1-yl)-N-(6-(piperazin-1-yl)pyridin-3-yl)-1H-pyrazolo[3,4-c]pyridine-7-carboxamide], with over 8.00; and `O=C(N[C@H]1CC[C@H](CO)CC1)c1nc(-n2ccnc2)cc2cn[nH]c12` [Example 225, N-((1r,4r)-4-(hydroxymethyl)cyclohexyl)-5-(1H-imidazol-1-yl)-1H-pyrazolo[3,4-c]pyridine-7-carboxamide], with over 8.00.
`C[C@]1(O)CC[C@@H](NC(=O)c2nc(-n3ccnc3)cc3cn[nH]c23)CC1` [Example 226, N-((1s,4s)-4-hydroxy-4-methylcyclohexyl)-5-(1H-imidazol-1-yl)-1H-pyrazolo[3,4-c]pyridine-7-carboxamide] had a pIC50 of 7.00 to 8.00.
In turn, `O=C(N[C@H]1CC[C@H](N2CC(F)(F)C2)CC1)c1nc(-n2ccnc2)cc2cn[nH]c12` [Example 227, N-((1r,4r)-4-(3,3-difluoroazetidin-1-yl)cyclohexyl)-5-(1H-imidazol-1-yl)-1H-pyrazolo[3,4-c]pyridine-7-carboxamide] showed a pIC50 of 7.00 to 8.00.
Then `O=C(N[C@H]1CC[C@H](C2(O)CC2)CC1)c1nc(-n2ccnc2)cc2cn[nH]c12` [Example 228, N-((1r,4r)-4-(1-hydroxycyclopropyl)cyclohexyl)-5-(1H-imidazol-1-yl)-1H-pyrazolo[3,4-c]pyridine-7-carboxamide], with over 8.00; and `O=C(Nc1ccc(C(F)(F)F)nc1)c1nc(-n2ccnc2)cc2cn[nH]c12` [Example 229, 5-(1H-imidazol-1-yl)-N-(6-(trifluoromethyl)pyridin-3-yl)-1H-pyrazolo[3,4-c]pyridine-7-carboxamide], with over 8.00; and `O=C(Nc1ccc(OCCN2CC3(COC3)C2)nc1)c1nc(-n2ccnc2)cc2cn[nH]c12` [Example 230, N-(6-(2-(2-oxa-6-azaspiro[3.3]heptan-6-yl)ethoxy)pyridin-3-yl)-5-(1H-imidazol-1-yl)-1H-pyrazolo[3,4-c]pyridine-7-carboxamide], with 7.00 to 8.00.
`O=C(Nc1ccc(OCC(F)(F)F)nc1)c1nc(-n2ccnc2)cc2cn[nH]c12` [Example 231, 5-(1H-imidazol-1-yl)-N-(6-(2,2,2-trifluoroethoxy)pyridin-3-yl)-1H-pyrazolo[3,4-c]pyridine-7-carboxamide] had a pIC50 of over 8.00.
The molecule `O=C(N[C@H]1CC[C@H](N2CCC(F)(F)C2)CC1)c1nc(-n2ccnc2)cc2cn[nH]c12` [Example 232, N-((1r,4r)-4-(3,3-difluoropyrrolidin-1-yl)cyclohexyl)-5-(1H-imidazol-1-yl)-1H-pyrazolo[3,4-c]pyridine-7-carboxamide] had a pIC50 of 7.00 to 8.00.
Turning to `O=C(N[C@H]1CC[C@H](NC2COC2)CC1)c1nc(-n2ccnc2)cc2cn[nH]c12` [Example 233, 5-(1H-imidazol-1-yl)-N-((1r,4r)-4-(oxetan-3-ylamino)cyclohexyl)-1H-pyrazolo[3,4-c]pyridine-7-carboxamide], the pIC50 was 7.00 to 8.00.
Molecule `O=C(N[C@H]1CC[C@H](N2CC(C(F)(F)F)C2)CC1)c1nc(-n2ccnc2)cc2cn[nH]c12` [Example 234, 5-(1H-imidazol-1-yl)-N-((1r,4r)-4-(3-(trifluoromethyl)azetidin-1-yl)cyclohexyl)-1H-pyrazolo[3,4-c]pyridine-7-carboxamide] showed a pIC50 of 7.00 to 8.00.
Turning to `CC(F)(F)CN[C@H]1CC[C@H](NC(=O)c2nc(-n3ccnc3)nc3cc[nH]c23)CC1` [Example 235, N-((1r,4r)-4-((2,2-difluoropropyl)amino)cyclohexyl)-2-(1H-imidazol-1-yl)-5H-pyrrolo[3,2-d]pyrimidine-4-carboxamide], the pIC50 was 7.00 to 8.00.
In turn, `O=C(Nc1ccc2c(c1)CNC2)c1nc(-n2ccnc2)cc2cn[nH]c12` [Example 236, 5-(1H-imidazol-1-yl)-N-(isoindolin-5-yl)-1H-pyrazolo[3,4-c]pyridine-7-carboxamide] had a pIC50 of over 8.00.
`CC(=O)N1Cc2ccc(NC(=O)c3nc(-n4ccnc4)cc4cn[nH]c34)cc2C1` [Example 237, N-(2-acetylisoindolin-5-yl)-5-(1H-imidazol-1-yl)-1H-pyrazolo[3,4-c]pyridine-7-carboxamide] had a pIC50 of over 8.00.
Then `O=C(N[C@H]1CC[C@H](C2(O)CC2)CC1)c1nc(-n2ccnc2)nc2cn[nH]c12` [Example 238, N-((1r,4r)-4-(1-hydroxycyclopropyl)cyclohexyl)-5-(1H-imidazol-1-yl)-1H-pyrazolo[4,3-d]pyrimidine-7-carboxamide], with over 8.00; and `C[C@]1(NCC(F)(F)F)CC[C@@H](NC(=O)c2nc(-n3ccnc3)cc3cn[nH]c23)CC1` [Example 239, 5-(1H-imidazol-1-yl)-N-((1s,4s)-4-methyl-4-((2,2,2-trifluoroethyl)amino)cyclohexyl)-1H-pyrazolo[3,4-c]pyridine-7-carboxamide], with over 8.00.
Regarding `C[C@]1(NCC(F)(F)F)CC[C@H](NC(=O)c2nc(-n3ccnc3)cc3cn[nH]c23)CC1` [Example 240, 5-(1H-imidazol-1-yl)-N-((1r,4r)-4-methyl-4-((2,2,2-trifluoroethyl)amino)cyclohexyl)-1H-pyrazolo[3,4-c]pyridine-7-carboxamide], the pIC50 was 6.00 to 7.00.
Then `O=C(N[C@H]1CC[C@H](N2CC(C(F)(F)F)C2)CC1)c1nc(-n2ccnc2)nc2cn[nH]c12` [Example 241, 5-(1H-imidazol-1-yl)-N-((1r,4r)-4-(3-(trifluoromethyl)azetidin-1-yl)cyclohexyl)-1H-pyrazolo[4,3-d]pyrimidine-7-carboxamide], with 7.00 to 8.00; and `CNC(=O)[C@H]1CC[C@H](NC(=O)c2nc(-n3ccnc3)nc3cn[nH]c23)CC1` [Example 242, 5-(1H-imidazol-1-yl)-N-((1r,4r)-4-(methylcarbamoyl)cyclohexyl)-1H-pyrazolo[4,3-d]pyrimidine-7-carboxamide], with 7.00 to 8.00; and `CC(=O)NC[C@H]1CC[C@H](NC(=O)c2nc(-n3ccnc3)nc3cn[nH]c23)CC1` [Example 243, N-((1r,4r)-4-(acetamidomethyl)cyclohexyl)-5-(1H-imidazol-1-yl)-1H-pyrazolo[4,3-d]pyrimidine-7-carboxamide], with 7.00 to 8.00.
